Results from publication PMC6838142, “Nano-Antagonist Alleviates Inflammation and Allows for MRI of Atherosclerosis” (Nanotheranostics, 2019).

Legend:
NF-kB = test: Nanoparticle screening: NFkB activation in RAW-Blue reporter cells; format: cell-based, mouse
Method: A schematic representation of nanoparticle screening is depicted in Supplementary Figure S4. Briefly, RAW-Blue NFkB reporter cells were cultured as per the manufacturer's recommendations. Cells were seeded and cultured overnight in black opaque 96-well plates with a clear bottom at 50,000 per well. Cells were then treated with 1 and 10 µM of nanoparticles containing 1% rhodamine and positive and negative controls (see below) for 30 min on ice followed by washing steps with cold PBS. Next, lipopolysaccharide (LPS) was added at 100 ng/mL and incubated for 6 h at 37 °C, following which the cells were washed again and incubated for 18 h at 37 °C in fresh medium. Next, 20 µL of supernatant was collected and assayed using SEAP detection reagent in a separate clear bottom 96-well plate as per Invivogen instructions (http://www.invivogen.com). Absorbance at OD 650 nm was recorded and was indicative of NFkB activation. In parallel, cells in the opaque plate were washed again and fluorescence was read at 550 nm excitation and 620 nm emission. This signal from rhodamine was indicative of nanoparticle uptake. […] All analysis was performed using Molecular Devices i3 multi-mode plate reader and SoftMax Pro software version 6.2 (Molecular Devices).

[1] = tested on: F4/80-positive plaque macrophages; test: Immunohistochemistry / plaque macrophage co-staining; format: in vivo, mouse; details: mouse, in vivo
Method: Twenty-four hours after nanoparticle injection (see above), mice were euthanized and abdominal aortas were isolated and embedded in Optimal Cutting Temperature compound. After cryotome-sectioning, resulting in 20-30 slides per mouse, 15 slides were sent to Ohio State laser capture microdissection core lab for capture and analysis. The rest of the slides were processed as follows: after fixation in methanol:acetone 50:50 at -20 °C, slides were hydrated in PBS, blocked for 30 min in fish serum (Aqua Block) and stained for 1 h with primary antibodies against F4/80 followed washing and staining with HRP-conjugated secondary antibody for 30 min. DAB peroxidase kit was then used as per manufacturer's instructions followed by mounting. DAB and antibody staining (but not wash steps) was omitted in slides designated for nanoparticle fluorescence visualization. Nanoparticles fluorescence was visualized with Zeiss 510 LSM-meta confocal microscope and 20x objective. DAB F4/80 staining was visualized with Nikon FN1 microscope and same power objective.

[2] = tested on: NLRP3 inflammasome (J774 cells); test: Inflammasome activation immunoblot in J774 cells; format: cell-based, mouse; details: additional activator ATP 1 mM
Method: BMDMs or J774 cells were plated in 48-well plates at 2 x 10^5 per well. Next day, the medium was changed to Opti-MEM (100 μL per well) without serum and the cells were allowed to equilibrate for 3 h. Next, the cells were pretreated with the indicated concentrations of nanoparticles or controls for 3 h followed by the addition of LPS to some wells to the final LPS concentration of 50 ng/mL. LPS priming continued for another 2 h, following which DMSO (vehicle), Nigericin (5 μM) or adenosine triphosphate (ATP) (1 mM) were added to some wells. Cells were incubated for an additional 30 min and cell culture supernatants were collected on ice. Cells were washed with cold PBS once and lysed/processed as described in immunoblotting section. The supernatants (90 μL) were mixed with 10 μL of 10x SDS loading buffer (10% SDS, 10% Ficoll 400, 0.5 M Tris pH 6.8, 0.5 M DTT, and 0.001% bromophenol blue) and heat-denatured as described in the immunoblotting section. Supernatants were loaded at 45 μL per lane on Bio Rad TGX Criterion 12+2 gels (4-20%) and lysates were loaded at 15 μg per lane. Immunoblotting was performed as described above.
Supplementary Figure S10. Inflammasome activation assays in J774 cells. The cells were treated as described in Methods and main text Figure 5 legend, plus additional inflammasome activator ATP that was added at 1 mM. Immunoblot was performed as described in methods. […]

CCR2 = test: Uptake in macrophages from CCR2 knockout mice; format: cell-based, mouse; details: CCR2 KO vs wild-type, carboxyfluorescein-labeled
Method: Supplementary Figure S6. A) Separate channels for main manuscript Figure 1B.
Uptake of carboxyfluorescein-labeled CCTV or VTCC in cultured bone marrow derived macrophages from B)
CCR2 knockout (KO, B6.129S4-Ccr2 /J) or wild-type (WT) mice; C) wild-type mouse-derived macrophages
pre-treated (6 h) with CCR2 inhibitor BMS CCR2 22 (10 nM) or DMSO as vehicle control. C)
(1 picture or pasted object on this page, not shown here)

## CCTV
NF-kB; 10 µM nanoparticles vs Dex 1 mM, LPS 100 ng/mL
  NF-kB activity compared with dexamethasone: almost to the same level as that in cells treated with NF-kB inhibitor dexamethasone (Dex) at 1 mM
NF-kB; 1 and 10 µM nanoparticles, 30 min on ice, LPS 100 ng/mL 6 h, SEAP OD 650 nm
  NF-kB activity: significantly downregulated NF-kB activity
[1]
  co-staining with F4/80 in plaque: co-stained with CCTV
[2]
  inflammasome deactivation in J774 cells: reproducible in J774 cells
CCR2
  uptake in CCR2 knockout macrophages: drastically reduced
